In ChEMBL document CHEMBL1201862, “PubChem BioAssay data set” (2004):
Active and inactive are the calls of the source.

Tests used:
[1] = target: Glutathione-S-transferase (Schistosoma japonicum, UniProt Q26513); test: GST-antibody interaction or FRET quenching – biochemical, TR-FRET, artefact control for Vif-APOBEC3G degradation inhibitor project, dose response (AID 1117362); assay type: functional
Cysteine protease ATG4B = target: T1, Cysteine protease ATG4B (Homo sapiens, UniProt Q9Y4P1); assay type: functional;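 note: Fluorescence-based dose-response confirmation assay measuring inhibition of ATG4B activity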
T1 sequence (Q9Y4P1 whole entry): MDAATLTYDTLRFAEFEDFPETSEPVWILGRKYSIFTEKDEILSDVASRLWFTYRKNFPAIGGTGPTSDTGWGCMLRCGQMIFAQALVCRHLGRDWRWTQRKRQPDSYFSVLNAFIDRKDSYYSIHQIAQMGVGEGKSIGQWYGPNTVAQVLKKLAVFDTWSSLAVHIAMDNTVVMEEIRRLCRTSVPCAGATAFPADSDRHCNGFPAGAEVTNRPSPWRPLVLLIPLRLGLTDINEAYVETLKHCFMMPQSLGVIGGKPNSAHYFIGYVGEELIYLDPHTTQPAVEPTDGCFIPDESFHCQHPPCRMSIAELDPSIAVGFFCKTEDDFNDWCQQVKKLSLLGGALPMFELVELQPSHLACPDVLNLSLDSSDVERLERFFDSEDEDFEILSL

[2] = target: Dual specificity tyrosine-phosphorylation-regulated kinase 1A (Rattus norvegicus, UniProt Q63470); assay type: biochemical, Homo sapiens
Phospholipase A2 = Phospholipase A2 (Homo sapiens, UniProt P04054); assay type: functional;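 note: confirmatory dose-response counterscreen on phospholipase A2, testing hits that came from an ultra-high-throughput screen for ATG4B inhibitors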
[3] = viability loss in HeLa cells – cytotoxicity control for MgcRacGAP inhibitor project, dose response (AID 624300); assay type: functional
Troponin, cardiac muscle = Troponin, cardiac muscle (Homo sapiens, UniProt P19429+P45379+P63316); test: compounds desensitizing RTF to calcium – biochemical, fluorescence, cardiac regulated thin filaments, triplicate IC50, dose response (AID 504742); assay type: protein-complex assay
[4] = viability loss in THP-1 monocytes – THP-1 cells, cytotoxicity control for Vif-APOBEC3G degradation inhibitor project, dose response (AID 1117359); assay type: functional; conditions: THP-1
Nonstructural protein 1 = Nonstructural protein 1 (Influenza A virus, UniProt Q194T2); assay type: functional, Influenza A virus (A/California/07/2009(H1N1))
[5] = target: T2, Rac GTPase-activating protein 1 (Homo sapiens, UniProt Q9H0H5); test: blockers of MgcRacGAP-driven Rac1 GTP hydrolysis – biochemical, ADP Hunter fluorescence, primary and confirmatory, confirmation (AID 624330); assay type: functional
T2 sequence (Q9H0H5 whole entry): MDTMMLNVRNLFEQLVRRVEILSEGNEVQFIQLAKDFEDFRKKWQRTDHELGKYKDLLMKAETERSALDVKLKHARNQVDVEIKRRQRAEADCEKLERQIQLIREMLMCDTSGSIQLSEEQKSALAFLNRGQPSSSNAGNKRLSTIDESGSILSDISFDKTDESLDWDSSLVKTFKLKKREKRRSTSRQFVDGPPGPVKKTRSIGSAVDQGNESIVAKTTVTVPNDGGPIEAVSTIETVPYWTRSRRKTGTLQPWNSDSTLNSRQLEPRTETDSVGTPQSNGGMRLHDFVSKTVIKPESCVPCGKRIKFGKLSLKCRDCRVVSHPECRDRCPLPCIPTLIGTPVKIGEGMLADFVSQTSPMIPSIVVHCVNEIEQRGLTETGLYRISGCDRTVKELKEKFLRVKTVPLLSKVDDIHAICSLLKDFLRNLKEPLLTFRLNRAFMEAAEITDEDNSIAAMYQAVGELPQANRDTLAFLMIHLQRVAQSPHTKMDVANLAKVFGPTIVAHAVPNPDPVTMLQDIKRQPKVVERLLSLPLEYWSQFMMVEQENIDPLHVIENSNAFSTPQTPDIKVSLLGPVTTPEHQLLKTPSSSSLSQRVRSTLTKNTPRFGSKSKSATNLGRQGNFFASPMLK

[6] = target: T3, DNA repair protein RAD52 homolog (Homo sapiens, UniProt P43351); assay type: functional, biochemical
T3 sequence (P43351 whole entry): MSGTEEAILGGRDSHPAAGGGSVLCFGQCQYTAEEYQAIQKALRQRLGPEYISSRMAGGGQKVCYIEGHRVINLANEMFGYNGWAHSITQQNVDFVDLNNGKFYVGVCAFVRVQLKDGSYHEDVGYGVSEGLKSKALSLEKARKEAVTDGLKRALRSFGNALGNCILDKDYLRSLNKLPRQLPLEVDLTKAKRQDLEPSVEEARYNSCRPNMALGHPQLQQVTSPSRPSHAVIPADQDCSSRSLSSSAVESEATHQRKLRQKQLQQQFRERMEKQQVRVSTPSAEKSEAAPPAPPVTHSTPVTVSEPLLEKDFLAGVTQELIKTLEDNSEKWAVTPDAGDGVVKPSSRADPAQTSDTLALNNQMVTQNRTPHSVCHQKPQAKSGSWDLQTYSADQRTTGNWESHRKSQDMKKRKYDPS

INS1 = test: INS-1E survival protection against cytokine death – cell-based, luminescence, retest, dose response (AID 449756); assay type: functional; conditions: Rattus norvegicus;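 note: cell death triggered by IL-1 beta plus TNF-alpha plus IFN-gamma mixture; protective hits raise ATP signal compared with cytokine alone wells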
[7] = target: G-protein coupled receptor 35 (Homo sapiens, UniProt Q9HC97); test: inhibition of zaprinast-stimulated GPR35 beta-arrestin translocation – imaging, U2OS, beta-arrestin-GFP, zaprinast agonist, primary screen (AID 2058); assay type: functional;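 note: antagonist potency meaning inhibition of agonist-induced arrestin redistribution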
[8] = target: T4, G-protein coupled receptor 55 (Homo sapiens, UniProt Q9Y2T6); test: inhibition of LPI-stimulated GPR55 beta-arrestin translocation – imaging, U2OS, beta-arrestin-GFP, LPI agonist, primary screen (AID 2013); assay type: functional;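 note: antagonist potency measured as reduced agonist-driven arrestin aggregation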
[9] = fluconazole-exposed Candida albicans growth modulators – fluorescence, retest, confirmation (AID 2467); assay type: functional, cell-based
[10] = NIH-3T3 fibroblast cytotoxicity, dose response, cytotoxicity control, cell-based, fluorescence, Alamar Blue, secondary assay (AID 2327); assay type: functional;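 note: NIH-3T3 mouse fibroblasts cultured with fluconazole at 8 µg/mL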
[11] = target: Potassium voltage-gated channel subfamily KQT member 2 (Rattus norvegicus, UniProt O88943); test: potentiation of rat KCNQ2 current – cell-based, retigabine-insensitive compounds, dose response (AID 2654); assay type: functional
[12] = target: T4, G-protein coupled receptor 55; test: selective activators of receptor GPR55 – imaging, U2OS cells, beta-arrestin-GFP redistribution, primary screen (AID 1961); assay type: functional
ORF 73 = ORF 73 (Human herpesvirus 8, UniProt O40947); test: KSHV LANA DNA-binding disruption – biochemical, fluorescence polarization, cherry-picked samples, dose response (AID 504725); set-up: species or system Human gammaherpesvirus 8;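 note: fluorescence polarization of a labeled DNA duplex reporting LANA DNA binding; potency is for inhibitors that block LANA binding to the DNA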
[13] = target: T5, Histone-lysine N-methyltransferase NSD2 (Homo sapiens, UniProt O96028); assay type: biochemical
T5 sequence (O96028 whole entry): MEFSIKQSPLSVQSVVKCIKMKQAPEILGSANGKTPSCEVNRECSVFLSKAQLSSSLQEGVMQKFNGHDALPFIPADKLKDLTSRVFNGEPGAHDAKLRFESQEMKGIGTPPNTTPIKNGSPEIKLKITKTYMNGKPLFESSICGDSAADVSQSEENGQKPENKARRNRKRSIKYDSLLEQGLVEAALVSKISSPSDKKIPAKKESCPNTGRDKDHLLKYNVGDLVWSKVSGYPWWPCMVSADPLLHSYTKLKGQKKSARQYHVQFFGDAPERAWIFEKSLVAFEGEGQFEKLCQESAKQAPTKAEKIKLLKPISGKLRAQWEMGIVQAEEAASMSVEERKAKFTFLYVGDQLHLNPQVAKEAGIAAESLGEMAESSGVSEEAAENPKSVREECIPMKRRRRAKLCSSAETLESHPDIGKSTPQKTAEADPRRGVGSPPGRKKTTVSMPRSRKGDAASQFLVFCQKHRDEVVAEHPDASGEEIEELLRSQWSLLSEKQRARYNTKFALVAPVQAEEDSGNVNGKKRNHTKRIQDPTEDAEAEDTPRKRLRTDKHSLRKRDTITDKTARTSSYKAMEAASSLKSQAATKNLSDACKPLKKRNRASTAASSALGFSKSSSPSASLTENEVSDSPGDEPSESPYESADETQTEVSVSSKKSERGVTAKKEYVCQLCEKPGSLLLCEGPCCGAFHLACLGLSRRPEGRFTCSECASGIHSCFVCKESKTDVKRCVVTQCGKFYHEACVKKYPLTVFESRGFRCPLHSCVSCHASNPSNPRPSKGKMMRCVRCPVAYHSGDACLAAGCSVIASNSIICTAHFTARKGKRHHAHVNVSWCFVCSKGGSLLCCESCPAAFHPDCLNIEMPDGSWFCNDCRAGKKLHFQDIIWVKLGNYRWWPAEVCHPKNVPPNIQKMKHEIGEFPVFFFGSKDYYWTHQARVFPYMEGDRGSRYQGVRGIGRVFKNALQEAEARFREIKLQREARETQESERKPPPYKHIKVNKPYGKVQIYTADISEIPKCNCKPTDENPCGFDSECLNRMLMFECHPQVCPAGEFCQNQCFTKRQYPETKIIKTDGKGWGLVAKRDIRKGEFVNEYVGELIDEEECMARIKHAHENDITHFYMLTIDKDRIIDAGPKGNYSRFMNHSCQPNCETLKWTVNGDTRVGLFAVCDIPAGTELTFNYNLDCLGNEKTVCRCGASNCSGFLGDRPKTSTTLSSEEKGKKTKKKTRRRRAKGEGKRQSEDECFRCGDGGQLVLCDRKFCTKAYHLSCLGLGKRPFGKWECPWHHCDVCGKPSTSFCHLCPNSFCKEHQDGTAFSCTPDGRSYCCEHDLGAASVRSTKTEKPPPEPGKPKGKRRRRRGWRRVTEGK

[14] = target: Protein phosphatase methylesterase 1 (Homo sapiens, UniProt Q9Y570); test: endogenous PME-1 and serine hydrolase inhibition – cell lysate, mouse brain cytosol, FP-rhodamine, gel ABPP, selectivity assay for PME-1 inhibitor project, dose response, panel member PME-1 Assay Panel member description: Inhibition of endogenously expressed PME-1 (AID 2366)
[15] = HRAS-V12 fibroblast viability reduction – cell-based, Alamar Blue, dry powder, Ras selective lethality project, primary screen (AID 493045); assay type: functional; conditions: BJeLR
[16] = BJeH cell viability loss – BJeH cells, dry powder, counter-screen for Ras selective lethality project, dose response (AID 493054); assay type: functional, cell-based
[17] = DRD BJ cell killing, Ras synthetic lethality – DRD BJ fibroblasts, HRASV12, dry powder, dose response (AID 493049); assay type: functional, cell-based
[18] = BJeHLT cell viability loss – BJeHLT cells, dry powder, counter-screen for Ras selective lethality project, dose response (AID 493052); assay type: functional, cell-based; conditions: Homo sapiens
[19] = target: Glutathione S-transferase omega-1 (Homo sapiens, UniProt P78417); test: IC50 of human GSTO1 blockade by gel ABPP – biochemical, SE-Rh probe, in-gel fluorescence, powder samples, set 2, late-stage follow-up (AID 463142); assay type: functional
[20] = target: Phosphoethanolamine/phosphocholine phosphatase (Homo sapiens, UniProt Q8TCT1); test: SAR assay for compounds that inhibit PHOSPHO1. [Related pubchem assays (depositor defined):AID1545, AID1565, AID1574]
[21] = target: T6, Mannose-6-phosphate isomerase (Homo sapiens, UniProt P34949); test: phosphomannose isomerase inhibition – biochemical, fluorescence intensity, confirmation (AID 1535)
T6 sequence (P34949 whole entry): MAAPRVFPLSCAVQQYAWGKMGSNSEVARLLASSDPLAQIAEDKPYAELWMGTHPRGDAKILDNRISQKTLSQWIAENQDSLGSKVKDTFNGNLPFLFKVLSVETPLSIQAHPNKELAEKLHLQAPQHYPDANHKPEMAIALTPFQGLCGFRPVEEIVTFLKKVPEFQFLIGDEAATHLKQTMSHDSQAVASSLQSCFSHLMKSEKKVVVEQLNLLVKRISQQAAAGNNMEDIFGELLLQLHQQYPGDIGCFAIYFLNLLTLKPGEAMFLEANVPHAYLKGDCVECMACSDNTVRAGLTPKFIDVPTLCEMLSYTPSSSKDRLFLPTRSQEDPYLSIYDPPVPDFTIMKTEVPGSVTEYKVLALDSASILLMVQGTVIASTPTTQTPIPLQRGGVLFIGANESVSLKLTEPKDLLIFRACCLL

Phosphomannomutase 2 = Phosphomannomutase 2 (Homo sapiens, UniProt O15305); test: Counter screen SAR assay for PMM2 inhibitors via a fluorescence intensity assay. [Related pubchem assays (depositor defined):AID1545, AID1574]
Sequence of Phosphomannomutase 2 (O15305 whole entry): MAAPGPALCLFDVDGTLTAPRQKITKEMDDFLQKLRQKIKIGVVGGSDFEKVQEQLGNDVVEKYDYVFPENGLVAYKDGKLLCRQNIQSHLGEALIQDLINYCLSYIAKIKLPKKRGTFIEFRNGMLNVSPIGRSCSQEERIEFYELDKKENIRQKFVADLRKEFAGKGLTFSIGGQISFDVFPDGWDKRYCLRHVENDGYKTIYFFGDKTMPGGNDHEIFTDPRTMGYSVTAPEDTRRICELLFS

T4 sequence (Q9Y2T6 whole entry): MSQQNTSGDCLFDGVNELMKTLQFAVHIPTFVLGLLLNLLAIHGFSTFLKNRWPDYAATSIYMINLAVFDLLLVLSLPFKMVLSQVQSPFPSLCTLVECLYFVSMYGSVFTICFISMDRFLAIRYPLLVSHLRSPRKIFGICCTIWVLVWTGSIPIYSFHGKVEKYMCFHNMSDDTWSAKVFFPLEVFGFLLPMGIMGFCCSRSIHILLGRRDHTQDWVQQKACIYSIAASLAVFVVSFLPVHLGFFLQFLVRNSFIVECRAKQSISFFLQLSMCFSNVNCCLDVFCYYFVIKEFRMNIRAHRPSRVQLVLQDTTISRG
Sequence of Glutathione S-transferase omega-1 (P78417 whole entry): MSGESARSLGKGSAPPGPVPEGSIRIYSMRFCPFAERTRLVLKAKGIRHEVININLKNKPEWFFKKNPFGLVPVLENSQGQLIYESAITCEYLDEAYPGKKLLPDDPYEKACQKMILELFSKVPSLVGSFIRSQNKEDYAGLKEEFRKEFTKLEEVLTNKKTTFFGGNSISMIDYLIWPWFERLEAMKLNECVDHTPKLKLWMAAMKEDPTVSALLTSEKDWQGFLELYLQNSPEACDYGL
Sequence of Protein phosphatase methylesterase 1 (Q9Y570 whole entry): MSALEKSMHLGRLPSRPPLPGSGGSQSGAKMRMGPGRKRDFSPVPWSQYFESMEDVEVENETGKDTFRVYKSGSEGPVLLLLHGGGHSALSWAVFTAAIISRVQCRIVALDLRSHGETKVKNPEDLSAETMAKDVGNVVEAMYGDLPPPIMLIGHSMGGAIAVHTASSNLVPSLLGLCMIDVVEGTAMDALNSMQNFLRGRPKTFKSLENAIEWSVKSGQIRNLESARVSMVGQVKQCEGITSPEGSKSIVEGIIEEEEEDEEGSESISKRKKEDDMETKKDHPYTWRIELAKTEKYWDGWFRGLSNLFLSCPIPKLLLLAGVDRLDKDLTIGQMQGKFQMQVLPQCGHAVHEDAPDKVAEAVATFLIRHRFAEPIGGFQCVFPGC
Sequence of ORF 73 (O40947 whole entry): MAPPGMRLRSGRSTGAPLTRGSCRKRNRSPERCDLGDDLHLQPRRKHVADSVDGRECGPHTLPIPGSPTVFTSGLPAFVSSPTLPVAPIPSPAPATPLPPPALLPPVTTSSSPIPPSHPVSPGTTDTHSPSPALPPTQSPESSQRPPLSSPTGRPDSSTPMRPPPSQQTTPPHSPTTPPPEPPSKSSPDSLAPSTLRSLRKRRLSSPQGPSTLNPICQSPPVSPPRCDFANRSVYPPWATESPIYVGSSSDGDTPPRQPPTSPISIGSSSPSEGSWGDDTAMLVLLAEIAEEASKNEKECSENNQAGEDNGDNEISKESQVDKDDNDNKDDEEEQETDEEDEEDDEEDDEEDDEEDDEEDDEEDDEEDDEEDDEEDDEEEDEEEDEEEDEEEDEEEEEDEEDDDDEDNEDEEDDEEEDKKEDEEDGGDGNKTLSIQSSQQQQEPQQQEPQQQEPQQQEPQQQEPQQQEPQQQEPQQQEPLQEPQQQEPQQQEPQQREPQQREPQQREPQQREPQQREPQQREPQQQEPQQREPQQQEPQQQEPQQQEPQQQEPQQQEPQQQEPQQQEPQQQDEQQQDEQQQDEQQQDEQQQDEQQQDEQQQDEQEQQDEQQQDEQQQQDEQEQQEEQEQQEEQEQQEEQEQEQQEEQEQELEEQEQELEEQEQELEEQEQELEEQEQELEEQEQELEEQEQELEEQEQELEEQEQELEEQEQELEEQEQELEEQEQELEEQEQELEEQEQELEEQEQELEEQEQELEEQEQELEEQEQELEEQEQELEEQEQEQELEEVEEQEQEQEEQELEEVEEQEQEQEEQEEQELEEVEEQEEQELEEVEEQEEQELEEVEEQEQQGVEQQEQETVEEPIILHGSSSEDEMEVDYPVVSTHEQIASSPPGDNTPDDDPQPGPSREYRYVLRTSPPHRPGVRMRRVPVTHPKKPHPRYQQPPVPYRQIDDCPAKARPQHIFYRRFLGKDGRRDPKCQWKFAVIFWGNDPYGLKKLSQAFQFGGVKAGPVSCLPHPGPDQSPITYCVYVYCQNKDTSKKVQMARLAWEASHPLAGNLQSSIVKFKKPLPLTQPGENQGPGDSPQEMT
Sequence of G-protein coupled receptor 35 (Q9HC97 whole entry): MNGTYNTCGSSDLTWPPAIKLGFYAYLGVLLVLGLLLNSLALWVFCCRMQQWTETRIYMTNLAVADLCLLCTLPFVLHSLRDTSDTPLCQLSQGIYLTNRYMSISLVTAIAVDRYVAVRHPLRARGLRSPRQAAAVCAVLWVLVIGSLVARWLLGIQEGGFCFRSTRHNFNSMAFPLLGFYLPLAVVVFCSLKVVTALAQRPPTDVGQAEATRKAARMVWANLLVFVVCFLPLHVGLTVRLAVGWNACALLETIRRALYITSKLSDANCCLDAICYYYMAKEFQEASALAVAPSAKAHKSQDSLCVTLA
Sequence of Glutathione-S-transferase (Q26513 whole entry): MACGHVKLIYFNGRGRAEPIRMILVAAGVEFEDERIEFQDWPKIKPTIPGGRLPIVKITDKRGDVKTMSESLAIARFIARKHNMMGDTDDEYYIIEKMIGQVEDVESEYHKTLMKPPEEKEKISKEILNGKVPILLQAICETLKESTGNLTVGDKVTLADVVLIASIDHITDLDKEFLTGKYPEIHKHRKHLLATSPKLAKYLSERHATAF
Sequence of Phosphoethanolamine/phosphocholine phosphatase (Q8TCT1 whole entry): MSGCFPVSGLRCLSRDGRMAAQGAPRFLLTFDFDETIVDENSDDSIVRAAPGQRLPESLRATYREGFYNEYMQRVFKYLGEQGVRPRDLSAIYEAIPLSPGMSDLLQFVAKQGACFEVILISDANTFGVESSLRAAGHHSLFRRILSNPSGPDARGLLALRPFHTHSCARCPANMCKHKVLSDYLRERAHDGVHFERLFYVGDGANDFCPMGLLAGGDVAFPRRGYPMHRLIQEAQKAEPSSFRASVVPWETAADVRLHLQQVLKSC
Sequence of Phospholipase A2 (P04054 whole entry): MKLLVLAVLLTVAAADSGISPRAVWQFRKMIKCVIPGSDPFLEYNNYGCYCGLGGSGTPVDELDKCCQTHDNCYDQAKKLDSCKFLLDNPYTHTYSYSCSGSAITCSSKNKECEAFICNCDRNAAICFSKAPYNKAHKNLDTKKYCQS
Sequence of Potassium voltage-gated channel subfamily KQT member 2 (O88943 whole entry): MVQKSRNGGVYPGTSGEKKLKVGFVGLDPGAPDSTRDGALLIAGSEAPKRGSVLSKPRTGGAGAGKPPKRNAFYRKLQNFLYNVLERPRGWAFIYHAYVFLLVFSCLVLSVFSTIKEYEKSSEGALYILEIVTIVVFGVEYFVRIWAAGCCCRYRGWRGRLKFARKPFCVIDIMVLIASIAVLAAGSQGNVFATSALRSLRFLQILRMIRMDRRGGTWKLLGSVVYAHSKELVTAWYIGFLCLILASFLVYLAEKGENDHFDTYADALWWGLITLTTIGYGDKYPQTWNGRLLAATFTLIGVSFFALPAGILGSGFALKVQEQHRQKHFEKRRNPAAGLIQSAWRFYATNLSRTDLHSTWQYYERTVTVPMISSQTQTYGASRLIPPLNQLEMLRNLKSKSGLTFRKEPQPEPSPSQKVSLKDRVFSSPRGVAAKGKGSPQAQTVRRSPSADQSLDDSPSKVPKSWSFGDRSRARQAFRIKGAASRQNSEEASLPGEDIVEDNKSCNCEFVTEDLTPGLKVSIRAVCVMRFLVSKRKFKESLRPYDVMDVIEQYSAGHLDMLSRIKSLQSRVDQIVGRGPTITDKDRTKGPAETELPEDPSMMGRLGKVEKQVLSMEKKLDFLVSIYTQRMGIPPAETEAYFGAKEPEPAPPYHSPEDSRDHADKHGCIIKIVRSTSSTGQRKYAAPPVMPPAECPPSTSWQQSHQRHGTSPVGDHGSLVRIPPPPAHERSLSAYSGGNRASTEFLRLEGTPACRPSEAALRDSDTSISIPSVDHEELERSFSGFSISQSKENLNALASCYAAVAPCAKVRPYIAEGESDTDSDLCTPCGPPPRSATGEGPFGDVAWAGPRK
Sequence of Nonstructural protein 1 (Q194T2 whole entry): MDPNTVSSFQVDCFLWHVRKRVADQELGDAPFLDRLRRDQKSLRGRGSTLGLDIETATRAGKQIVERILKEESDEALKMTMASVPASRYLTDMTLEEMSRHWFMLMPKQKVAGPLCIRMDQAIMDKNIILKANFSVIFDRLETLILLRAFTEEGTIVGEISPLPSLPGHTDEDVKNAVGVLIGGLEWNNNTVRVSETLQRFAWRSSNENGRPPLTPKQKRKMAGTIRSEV

## N=C(N)c1ccc(/N=N/c2c(O)ccc3c2[nH]c2ccccc23)cc1
[1]
  IC50: 2.48 µM (active)
Cysteine protease ATG4B
  IC50: 5.61 µM (active)
[2]
  AC50: 1.31 µM (active)
Phospholipase A2
  IC50: 9.6 µM (active)
[3]
  CC50: 67.4 µM (active)
Troponin, cardiac muscle
  IC50: 8.6 µM (active)
[4]
  CC50: 12.5 µM (active)
Nonstructural protein 1
  IC50: 6.65 µM (active)
[5]
  IC50: 12.7 µM (active)
[6]
  AC50: 2.15 µM (active)

## COc1ccc(C)cc1Nc1n[n+](-c2ccccc2)c(-c2ccc(N(C)C)cc2)s1
INS1
  AC50: 2.53 µM (active)
[7]
  IC50: 3.54 µM (active)
[8]
  IC50: 3.42 µM (active)
[9]
  EC50: 2.27 µM (active)
[10]
  EC50: > 150 µM (inactive)

## Cc1ccc(NC(=O)Nc2cccnc2)cc1C
[11]
  EC50: 13.4 µM (active)

## O=C(c1ccco1)N1CCN(c2ncnc3c2nnn3Cc2ccccc2Cl)CC1
[12]
  EC50: 13.7 µM (inactive)

## NC(S)=NN=Cc1ccc(-c2ccc(S(=O)(=O)Nc3ncccn3)cc2)o1
ORF 73
  AC50: 97.3 µM (active)
[13]
  AC50: 15.3 µM (active)

## CCCCS(=O)(=O)n1cccc1/C=C(\C#N)S(C)(=O)=O
[14]
  IC50: > 20 µM (inactive)

## COc1ccc(N(C(=O)CCl)C(C(=O)NCCc2ccccc2)C(C)C)cc1Cl (stereo not drawn)
[15]
  AC50: 0.895 µM (active)
[16]
  AC50: 1.81 µM (active)
[17]
  AC50: 0.887 µM (active)
[18]
  AC50: 1.3 µM (active)

## O=C(CCl)N(CCCCNC(=O)C(F)(F)F)c1ccc([N+](=O)[O-])cc1
[19]
  IC50: 0.012 µM (active)

## O=c1c2ccc(F)cc2sn1-c1cc(Cl)c(Cl)cc1Cl
[20]
  IC50: 0.563 µM (active)
[21]
  IC50: > 50 µM (inactive)
Phosphomannomutase 2
  IC50: > 100 µM (inactive)
